# Values quoted from earlier work as cited in patent US20100120075A1, “Composition and a method for suppressing the luminescence intensity decline in a luciferin-luciferase reaction” (priority 2008, published 2010).
# Tested on: Gaussia luciferase
Compound,suppression of reaction time-dependent decline in luminescent intensity,deactivation of the luciferase
nonyl phenoxylpolyethoxylethanol [NP-40],suppressed,–
CCCCCCCCCCCCOS(=O)(=O)[O-].[Na+] [sodium dodecyl sulfate],did not suppress the decline,deactivated the luciferase
polyoxyethylene octyl phenyl ether [Triton X-100],suppressed,–
